Results reported in patent US20250235499A1, “ANTI-OVARIAN CANCER PHARMACEUTICAL COMPOSITION AND ACTION TARGET THEREOF” (Zhejiang Chinese Medical University, priority 2024, published 2025).

What was measured:
[1] = test system: CDK4, Cyclin D1, P21 in SKOV3 cells; assay: Expression of cell cycle related proteins in cells; format: cell-based, human
[2] = test system: CDK4, Cyclin D1, P21 in Hey cells; assay: Expression of cell cycle related proteins in cells; format: cell-based, human
Hey ovarian cancer cell = assay: Tumor bearing nude mouse model (tumor volume, tumor inhibition rate, body weight); format: in vivo, BALB/c nude mice; conditions: intraperitoneal, 15 days; DDP 3 mg/kg, CA 80 mg/kg, BDMC 5 mg/kg; compared to the Control group, P<0.01
Experimental: Newly housed BALB/c nude mice were placed in an SPF grade feeding room laminar flow rack for adaptive feeding for one week, and the experimental animal status was adjusted. A Hey ovarian cancer cell was cultivated to the logarithmic growth stage, and the original culture medium was discarded. The Hey ovarian cancer cell was washed with PBS buffer, added with 0.1% trypsin digestion for digestion, added with the corresponding culture medium to terminate digestion, centrifuged at 1000 rpm for 3 minutes, and added with PBS buffer to prepare a cell suspension. The cell was counted using a hemocytometer, and the cell concentration was quantified to 5×10^7 cells/mL. After grasping and fixing the nude mouse with the left hand, and the skin at a needle inserting site on the right forelimb axilla of the nude mouse was disinfected with a 75% alcohol cotton ball. A disposable 1 mL syringe was used to inject approximately 100 μL of cell suspension subcutaneously into the posterior axilla of the right forelimb in an oblique stabbing inserting needle mode, so that each nude mouse was injected with approximately 5×10^6 cells. After vaccination, the needle inserting site was gently pressed with a cotton ball to prevent the cell suspension from leaking from a needle hole. The growth status of tumors at the vaccination site of nude mice was observed daily. After about one week, if the tumors at the vaccination site were compacted and appeared light red in color, it could be considered as successful tumor growth. At this time, the nude mice were randomly divided into 5 groups, a Control group intraperitoneally injected with physiological saline for 1 day each time; a DDP group intraperitoneally injected with cisplatin, 3 mg/kg, 3 d/time; a CA group intraperitoneally injected with CA, 80 mg/kg, 1 d/time; a BDMC group intraperitoneally injected with BDMC, 5 mg/kg, 1 d/time; a CA+BDMC group intraperitoneally injected with CA 80 mg/kg+BDMC 5 mg/kg, 1 d/time, 8 animals per group. A tumor length (L) and a […] were measured with a vernier caliper every 3 days to calculate a tumor volume. After 15 days of administration, nude mice were euthanized by dislocation of cervical vertebra, and tumor tissue was dissected. The tumor weight was weighed to calculate the tumor inhibition rate. The tumor tissue was stored in two batches at −80° C. and fixed with 4% paraformaldehyde.

[3] = test system: E-cadherin, N-cadherin, Vimentin in SKOV3 cells; assay: Expression of EMT related proteins in cells; format: cell-based, human
[4] = test system: SKOV3 ovarian cancer cells; assay: Colony formation with MCM2 knockdown or overexpression; format: cell-based, human
Experimental: (§1) SKOV3 and Hey ovarian cancer cells in logarithmic growth phase were knocked down with MCM2 (Control group, sh-NC group, sh-MCM2 group) and overexpressed with MCM2 (Control group, OE-NC group, OE-MCM2 group). The original culture medium was discarded, washed with PBS buffer, and digested with 0.1% trypsin. A corresponding culture medium was added to prepare a cell suspension. Cells were counted using a hemocytometer and a cell concentration was quantified at 10^3 cells/mL. 1500 μL of each well was inoculated into a 6 well plate, with 3 parallel wells in each group, and incubated in a 37° C. incubator containing 5% CO2 for 12 days. The medium was changed every three days. After the cultivation time was over, the six well plate was taken out, and the original culture medium was poured out. An appropriate amount of 4% paraformaldehyde was added to each well and fixed for 30 minutes. The plate was washed twice with a PBS buffer after pouring out the paraformaldehyde, an appropriate amount of 1% crystal violet solution was added for staining for 10 minutes, the crystal violet solution was poured out, and the plate was washed twice with PBS. Photos were taken, and the number of cell clones formed was counted. After knocking down MCM2 on the SKOV3 and Hey ovarian cancer cells and intervening with CA, BDMC, and combination administration, the results were shown in FIGS. 17A-17B. In FIGS. 17A-17B, A represented the formation of SKOV3 cell clones; and B represented the formation of Hey cell clones. Compared with the sh-NC group, #P<0.05, ##P<0.01; compared with the sh-NC+CA+BDMC group, &P<0.05, &&P<0.01; and ** P<0.01. In FIGS. 18A-18B, A represented the formation of SKOV3 cell clones; and B represented the formation of Hey cell clones. Compared with the OE-NC group, #P<0.05, ##P<0.01; compared with the OE-NC+CA+BDMC group, &P<0.05, &&P<0.01; and *P<0.05; and compared with the OE-MCM2+CA+BDMC group, ΔP<0.05, ΔΔP<0.01; and *P<0.05, ** P<0.01.

Hey ovarian cancer cells = assay: as above; format: cell-based, human
Experimental: as §1

[5] = SKOV3 OE-MCM2 cells (MCM2 overexpression), vs OE-MCM2 group
[6] = SKOV3 OE-NC cells (empty vector), vs OE-NC group
[7] = SKOV3 sh-MCM2 cells (MCM2 knockdown), vs sh-MCM2 group
[8] = SKOV3 sh-NC cells (empty vector), vs sh-NC group
[9] = Hey OE-MCM2 cells (MCM2 overexpression), vs OE-MCM2 group
[10] = Hey OE-NC cells (empty vector), vs OE-NC group
[11] = Hey sh-MCM2 cells (MCM2 knockdown), vs sh-MCM2 group
[12] = Hey sh-NC cells (empty vector), vs sh-NC group

With `COc1ccc(-c2coc3cc(O)ccc3c2=O)cc1O` [CA, calycosin] the “expression of CDK4” value [1, 5] was “no significant change”, the “expression of Cyclin D1” value [1, 5] was “no significant change” and the “expression of P21” value [1, 5] was “no significant change”. The “expression of CDK4” value [1, 6] was “significantly decreased”, the “expression of Cyclin D1” value [1, 6] was “significantly decreased” and the “expression of P21” value [1, 6] was “significantly increased”. The “expression of CDK4” value [1, 7] was “no significant change”, the “expression of Cyclin D1” value [1, 7] was “no significant change” and the “expression of P21” value [1, 7] was “no significant change”. The “expression of CDK4” value [1, 8] was “significantly decreased”, the “expression of Cyclin D1” value [1, 8] was “significantly decreased” and the “expression of P21” value [1, 8] was “significantly increased”. For the same compound, the “expression of CDK4” value [2, 9] was “no significant change”, the “expression of Cyclin D1” value [2, 9] was “no significant change” and the “expression of P21” value [2, 9] was “no significant change”. The “expression of CDK4” value [2, 10] was “significantly decreased”, the “expression of Cyclin D1” value [2, 10] was “significantly decreased” and the “expression of P21” value [2, 10] was “significantly increased”. The “expression of CDK4” value [2, 11] was “no significant change”, the “expression of Cyclin D1” value [2, 11] was “no significant change” and the “expression of P21” value [2, 11] was “no significant change”. The “expression of CDK4” value [2, 12] was “significantly decreased”, the “expression of Cyclin D1” value [2, 12] was “significantly decreased” and the “expression of P21” value [2, 12] was “significantly increased”. For the same compound, the tumor inhibition rate (Hey ovarian cancer cell) was “significantly increased”, the tumor volume size (Hey ovarian cancer cell) was “significantly reduced” and the “expression of E-cadherin” value [3, 5] was “no significant change”. For the same compound, the “expression of N-cadherin” value [3, 5] was “no significant change”, the “expression of Vimentin” value [3, 5] was “no significant change” and the “expression of E-cadherin” value [3, 6] was “significantly increased”. The “expression of N-cadherin” value [3, 6] was “significantly decreased”, the “expression of Vimentin” value [3, 6] was “significantly decreased” and the “expression of E-cadherin” value [3, 7] was “no significant change”. For the same compound, the “expression of N-cadherin” value [3, 7] was “no significant change”, the “expression of Vimentin” value [3, 7] was “no significant change” and the “expression of E-cadherin” value [3, 8] was “significantly increased”. The “expression of N-cadherin” value [3, 8] was “significantly decreased”, the “expression of Vimentin” value [3, 8] was “significantly decreased” and the “number of plaques formed by cloning” value [4, 5] was “no significant change”. The “number of plaques formed by cloning” value [4, 6] was “significantly reduced”, the “number of plaques formed by cloning” value [4, 7] was “no significant change” and the “number of plaques formed by cloning” value [4, 8] was “significantly reduced”. The “number of plaques formed by cloning” value (Hey ovarian cancer cells; [9]) was “no significant change”, the “number of plaques formed by cloning” value (Hey ovarian cancer cells; [10]) was “significantly reduced” and the “number of plaques formed by cloning” value (Hey ovarian cancer cells; [11]) was “no significant change”. The “number of plaques formed by cloning” value (Hey ovarian cancer cells; [12]) was “significantly reduced”.
